The results in this text go back to patent publication US20230390366A1, “PARAPHARMACEUTICAL OR PHARMACEUTICAL COMPOSITION ADMINISTRABLE TO A LIVING BEING, PREFERABLY A HUMAN BEING, COMPRISING AT LEAST ONE ENZYME FOR THE TREATMENT AND/OR PREVENTION OF BACTERIAL INFECTIONS INVOLVING BIOFILM FORMATION” (priority 2020, published 2023).

Common to all, as to format: cell-based
For data set [1], the system named is S. aureus biofilm. Nature of the data set: Curative enzyme treatment followed by 24 hours vancomycin, biofilm on titanium coupons, viability by CFU counting. The conditions noted are these: vancomycin 20 mg/L. The text has this: (§1) Two different biofilm models were used: static biofilm in 96-well plate (as described previously) and biofilm on titanium coupons. Titanium was chosen because it is a material widely used in the manufacture of implants (e.g. orthopaedic prostheses, dental implants, heart valves, pacemakers, etc.). The techniques used to measure viability differ between the two models and are detailed below.
(§2) In this model, viability was quantified after detachment and homogenisation of the biofilm via the technique of spreading and counting cells on a TSA culture media (VWR).
(§3) Titanium coupons (n=3 for each condition) were placed in the wells of a 12-well plate and incubated at 37° C. with agitation (50 rpm) for 24 hours in 3 ml of bacterial inoculum at an OD of 0.005 (10^6 CFU/ml) in order to allow biofilm to form. The coupons were then washed 2× with PBS (2 ml) and treated for 1 hour at 37° C. with the composition according to the invention or the solution without enzymes (CT−=20 mM TrisHCl pH7). The coupons were then washed twice with PBS (2 ml) and reincubated in 750 μl of TGN containing 0 or 20 mg/L of vancomycin for 24 hours at 37° C. with agitation (50 rpm). After two washes with PBS (2 ml), the biofilm was detached and homogenised in 2 ml of PBS. Different dilutions were carried out (from 10 to 10) and 10 μl of each dilution was spread on a TSA dish. Colonies (CFU) were counted after 18 hours of incubation at 37° C.
(§4) To analyse the effect of the compositions according to the invention, a statistical test (one-way ANOVA and Tukey's post-hoc test) was carried out. This test compares the fluorescence (viability) or absorbance (biomass) values of the CT− negative control (=treatment with buffer without enzymes) and of the biofilms treated with the enzyme compositions, at each vancomycin concentration. The difference is significant when the pvalue of the statistical test is less than or equal to 0.05 (* used on graphs). When this is specified in the comparative examples, the activity of the various enzyme compositions is compared (one-way ANOVA and post-hoc Tukey test).

Data set [2] concerns S. epidermidis ATCC35984 biofilm. The data set is described as above. The conditions noted are these: vancomycin 20 mg/L, absence of enzyme treatment (CT−, TGN).
Text: as §1, §2, §3, §4

For data set [3], the system named is S. aureus ATCC33591 biofilm. Nature of the data set: Curative enzyme treatment followed by 24 hours vancomycin, biofilm in 96-well plates, viability (resazurin) and biomass (crystal violet). The conditions noted are these: vancomycin 10 mg and 20 mg/L, absence of enzyme treatment. How it is done: For the tests described below, vancomycin was used as the antibiotic molecule. The antibiotic was added at different concentrations in TGN for 24 hours at 37° C. on the biofilms pretreated with the enzyme composition according to the invention (see the below sections). The biofilm was then washed before carrying out the biomass and viability measurements.
In this model, cell viability was measured indirectly, by measuring the metabolism of cells in the biofilm. Indeed, viability was quantified by tracking changes in the colour of resazurin (7-Hydroxy-3H-phenoxazin-3-one 10 oxide) (prestoBlue, ThermoFisher). […] The quantification of resorufin was carried out by measuring fluorescence. […]
The experimental method for cultivating the strains and forming the biofilm is described in point 1.1 of this document. […] The biofilms were then washed 2× with PBS (200 μl) before biomass and viability were analysed. Biomass was quantified via the CV staining technique following the procedure described in point 1.1. […] The plate containing all the samples was then incubated for 24 hours at 37° C. in the spectraMax M3 plate reader. Fluorescence was measured every 10 minutes for 18 hours (excitation 560 nm, emission 590 nm). […]

Another data set concerns MG63 osteoblasts. How it is done:
Cytotoxicity tests were performed on MG63 osteoblasts and other cell types.

Data set [4] has as its system biofilms comprising Candida albicans. The data set can be described thus: Enzyme treatment of biofilms comprising Candida albicans followed by antifungal/antibiotic. The conditions noted are these: Candida albicans alone or with S. aureus and/or E. coli; enzymes 30 minutes or 1 hour, then Caspofungin (and Moxifloxacin or Meropenem) 24 hours. The source says: The inventors then attempted to treat biofilms comprising Candida albicans, either in monoculture or in complex biofilm models comprising Candida albicans and prokaryotes. Different strains of Candida albicans were used: the ATCC24433 strain, as well as strains isolated from orthopaedic prosthesis infections. Subtilisin (protease from Bacillus licheniformis) and lyticase (from Arthrobacter luteus or Bacillus subtilis) were obtained at Sigma. The other enzymes are those used above.
The antifungal drug Caspofungin (Merck Sharp & Dohme) and, for complex biofilms additionally comprising one or more prokaryotes, the antibiotics Moxifloxacin HCl (Bayer) or Meropenem (Mylan) were used (24 hours of treatment, after the application of enzymes).

Data set [5] concerns S. epidermidis ATCC35984 biofilm. Nature of the data set: Curative enzyme treatment (1 hour, 37° C.) of preformed 24-hour biofilm in 96-well plates, residual biomass by crystal violet staining (A570). The conditions noted are these: 100 U/ml in TGN, vs CT−, 1 biofilm/3 of the panel significantly reduced.
In data set [6] the test system is S. aureus biofilm. The data set is described as above. The note with it: S. aureus ATCC33591 and 7832; 100 U/ml in TGN; vs CT−; 1 biofilm/3 of the panel significantly reduced. How it is done:
The effect of a treatment with the composition according to the invention on the biomass of biofilms was studied in a static model in 96-well plates. The curative enzyme treatment was carried out on a preformed 24-hour biofilm. To test its efficacy in reducing the biomass of biofilms, the composition according to the invention was brought into contact with the biofilm for 1 hour at 37° C. The enzyme solution was then removed, and the detached biomass was removed via rinsing steps. Crystal violet (CV) dye was then used to quantify residual biomass. […] CV staining was quantified via spectrophotometry by measuring the absorbance at 570 nm.
The different strains of S. aureus and P. aeruginosa (Table 1) were inoculated in 5 ml of TGN culture medium (Tryptic Soy Broth VWR+1% glucose+2% NaCl) from 20 μl of a stored glycerol stock at −80° C. […] The plates were then emptied, the biofilm was washed 2× with 200 μl PBS pH 7.5 (Sigma) and dried at 60° C. for 18 h before the biomass was analysed.
To quantify the residual biomass, a 1% CV solution (Sigma) was added to the biofilms at room temperature for 15 min. […] The dye attached to the biofilm was then detached and dissolved with 66% […] and absorbance at 570 nm (A570) was measured in a SpectraMax M3 multimode reader. This absorbance value corresponds to the biomass of the biofilm. […]

`CN[C@H](CC(C)C)C(=O)N[C@H]1C(=O)N[C@@H](CC(N)=O)C(=O)N[C@H]2C(=O)N[C@H]3C(=O)N[C@H](C(=O)N[C@H](C(=O)O)c4cc(O)cc(O)c4-c4cc3ccc4O)[C@H](O)c3ccc(c(Cl)c3)Oc3cc2cc(c3O[C@@H]2O[C@H](CO)[C@@H](O)[C@H](O)[C@H]2O[C@H]2C[C@](C)(N)[C@H](O)[C@H](C)O2)Oc2ccc(cc2Cl)[C@H]1O` [vancomycin]: the “effect on viability in biofilm (in words)” value in the data set with S. aureus biofilm [1] (S. aureus ATCC33591, titanium coupons, absence of enzyme treatment (CT−, Tris-HCl)) was “does not decrease viability in biofilm”; in the data set with S. aureus biofilm [1] (S. aureus ATCC33591 and 144-20, absence of enzyme treatment (CT−, TGN)), “does not significantly reduce viability in biofilm”; in data set [2], “does not significantly reduce viability in biofilm”. Further, the “effect on viability of the biofilm (in words)” value in data set [3] (20 mM TrisHCl pH7) was “only very slightly reduces”; in data set [3] (TGN), “does not reduce”.

B1: subtilisin: protease from Bacillus licheniformis (Sigma) (protein, UniProt P00780 106-379, looked up)
Subtilisin Carlsberg: AQTVPYGIPLIKADKVQAQGFKGANVKVAVLDTGIQASHPDLNVVGGASFVAGEAYNTDGNGHGTHVAGTVAALDNTTGVLGVAPSVSLYAVKVLNSSGSGSYSGIVSGIEWATTNGMDVINMSLGGASGSTAMKQAVDNAYAKGVVVVAAAGNSGSSGNTNTIGYPAKYDSVIAVGAVDSNSNRASFSSVGAELEVMAPGAGVYSTYPTNTYATLNGTSMASPHVAGAAALILSKHPNLSASQVRNRLSSTATYLGSSFYYGKGLINVEAAAQ
On to B1, for which, in the data set on MG63 osteoblasts, the “concentration at which already toxic to osteoblasts” value is “about 0.5 U/mL”. Moreover, the “effect on biofilms comprising Candida albicans (in words)” value in data set [4] is listed as “sensitised biofilms”.

B2: CE1: RNase I (Escherichia coli endoribonuclease, class EC4.6.1) 100 U/ml in TGN (protein, UniProt P21338 24-268, looked up)
Ribonuclease I: LALQAKQYGDFDRYVLALSWQTGFCQSQHDRNRNERDECRLQTETTNKADFLTVHGLWPGLPKSVAARGVDERRWMRFGCATRPIPNLPEARASRMCSSPETGLSLETAAKLSEVMPGAGGRSCLERYEYAKHGACFGFDPDAYFGTMVRLNQEIKESEAGKFLADNYGKTVSRRDFDAAFAKSWGKENVKAVKLTCQGNPAYLTEIQISIKADAINAPLSANSFLPQPHPGNCGKTFVIDKAGY
Consider B2, for which the “effect on the decrease in the biomass percentage of the biofilms (in words)” value (in data set [5]; in the data set with S. aureus biofilm [6]) was “little or no significant effect” in each case.
